# Experiments:
# 549 = details: fold change in gene expression, THZ1; cited from earlier work
# [1] = test system: phosphorylation of RNA Pol II at S2, S5 and S7; assay: Immunoblotting of RNA Pol II phosphorylation; format: cell-based; details: increasing concentrations (10-6250 nM), 4 hours, multiple breast cancer cell lines
# Protocol: (§1) Cells were plated in 100 mm^2 petri dishes at a density of 1×10^6 cells/plate and allowed to grow for 3-4 days until the cells reached 80% confluency. Cells were treated with THZ1 or with vehicle control (DMSO) prior to lysing cells in RIPA buffer containing protease inhibitor cocktail and PMSF. Protein concentration was determined using BCA assay (Pierce). All lysates were prepared in biological duplicates. Protein (50 μg) was resolved on 4-20% Express-Plus PAGE gels in Tris-MOPS (SDS) running buffer (GenScript), transferred to PVDF membranes and incubated at 4° C. overnight with primary antibodies: CDK7 (sc-529, SantaCruz), ER (sc-543, SantaCruz), HER2 (#4290, Cell Signaling Technology), RNA-Pol II-S2P (C152000005, Diagenode), RNA-Pol II-S5P C152000007, RNA-Pol II-S7P (04-1570, Millipore) and RNA-Pol II (sc-900X, SantaCruz), CITED2 (MAB5005, R+D Systems), Tubulin (T-9026, Sigma), followed by anti-rabbit (#31460, ThermoFisher Scientific), anti-mouse (31430, ThermoFisher Scientific) or anti-rat (AP136P, Millipore) secondary antibodies. Bands were visualized with Western Lighting Plus ECL detection reagent (Perkin Elmer) using ChemiDoc Touch™ (BioRad). Images were analyzed and densitometry performed using ImageLab software (Biorad).
# The effects of increasing concentrations of THZ1 on the phosphorylation of RNA Pol II at S2, S5 and S7 was tested across multiple breast cancer cell lines. […]
# [2] = test system: breast cancer cell lines (TNBC, ER+HER2−, ER+HER2+ and ER−/HER2+); assay: Cell proliferation, 12-well plates, bright-field imaging; format: cell-based; details: 100 nM, seven days of treatment
# Protocol: Cells were seeded in 12-well plates at densities ranging from 10000-30000 cells/well and after 24 hours cells were treated with 10, 40 and 100 nM THZ1 in triplicate. After 7 days the cells were imaged using Zeiss Axiovert 200 microscope using a 20× objective lens. Additionally, cells were plated in 96-well plates at a density of 2000 cells/well and after 24 hours treated with 0-10 μM THZ1. After 2 and 7 days the growth of the cells was measured by MTT assay.
# The effects of different concentrations of THZ1 on breast cancer cell lines was examined. Cell lines included TNBC, ER+HER2−, ER+HER2+ and ER−/HER2+ and effects were studied over seven days of treatment.
# T47D cells = assay: Cell cycle analysis; format: cell-based; details: 100 and 250 nM, 24 or 48 hours
# Protocol: (§2) MDA-MB-231 and T47D cells were seeded into 6-well plates and allow to grow until 60% confluent. The cells were then washed with PBS and the media was replaced with serum-free media overnight. After serum starvation the cells were treated with serum containing media in the presence or absence of 100 and 250 nM THZ1 for 24 and 48 hours. The cells were collected, fixed in ethanol overnight and cell cycle distribution was measured using DAPI on the LSR2 (Beckman-Dickinson).
# MDA-MB-231 cells = assay: Cell cycle analysis; format: cell-based; details: MDA-MB-231, 100 and 250 nM
# Protocol: as §2
# CITED2 = assay: Immunoblotting of CITED2 protein; format: cell-based; details: 10-6250 nM, 4 hours, immunoblot
# Protocol: as §1
# breast cancer cell lines = assay: qPCR gene expression after THZ1; format: cell-based; details: 250 nM, 6 hours
# Protocol: Cells were plated in 100 mm^2 petri dishes at a density of 1×10^6 cells/plate and allowed to grow for 3-4 days until the cells reached 80% confluency. Cells were treated with THZ1 or with vehicle control (DMSO). Total RNA was extracted using RNAeasy Mini Kit (Qiagen) and 1 μg of total RNA was used to generate cDNA using iScript cDNA synthesis kit (BioRad). Gene expression was quantified using iTaq Universal SYBR green super mix on a CFX384 Real time system (BioRad).
# [3] = test system: PARP cleavage in MDA-MB-231, SKBR3 and JIMT-1 cells; assay: Immunoblotting for PARP cleavage; format: cell-based; details: 250 nM, 24 and 48 hours
# Protocol: as §1
smiles,measurement,setting,value
CN(C)C/C=C/C(=O)Nc1ccc(C(=O)Nc2cccc(Nc3ncc(Cl)c(-c4c[nH]c5ccccc45)n3)c2)cc1 [THZ1],BAMBI 549 FC,549,−2.97
same,CDKN1B 549 FC,549,−3.06
same,CITED2 549 FC,549,−4.12
same,CYR61 549 FC,549,−2.96
same,DKK1 549 FC,549,−5.01
same,E2F8 549 FC,549,−3.09
same,ELF3 549 FC,549,−1.11
same,FADD 549 FC,549,−3.1
same,FBXO5 549 FC,549,−4.09
same,MARS2 549 FC,549,−3.73
same,MOCS3 549 FC,549,−4.2
same,MYC 549 FC,549,−3.06
same,NEDD9 549 FC,549,−1.53
same,PHLDA1 549 FC,549,−2.72
same,PIM3 549 FC,549,−2.73
same,PLK2 549 FC,549,−3.7
same,TRIB1 549 FC,549,−4.07
same,WEE1 549 FC,549,−2.95
same,ZNF217 549 FC,549,−3.66
same,ZNF627 549 FC,549,−3.39
same,"phosphorylation of RNA Pol II at S2, S5 and S7",[1],inhibited the phosphorylation of all three sites in a dose dependent manner
same,growth inhibition,[2],inhibited the growth of all tested cell lines regardless of subtype
same,cell cycle distribution,T47D cells,G1 arrest
same,cell cycle distribution,MDA-MB-231 cells; 24 hours,G1 arrest
same,cell cycle distribution,MDA-MB-231 cells; 48 hours,increased sub-G1 (apoptotic cell) accumulation
same,protein expression of CITED2,CITED2,significantly decreased
same,expression of SOX9 and STAT3,breast cancer cell lines; MDA-MB-231 and T47D,not inhibited
same,"expression of CITED2, CDKN1B and PLK2",breast cancer cell lines; majority of tested cell lines,significant decrease in expression
same,"expression of EGFR, MYC and FOXC1",breast cancer cell lines; majority of the cell lines tested,significantly inhibited
same,PARP cleavage,[3],induced PARP cleavage only in the SKBR3 cells

# Reference: patent US10913983B2, “Sensitivity markers and uses for CDK7 inhibitors in breast cancers” (UNIVERSITY OF SOUTH CAROLINA, priority 2017, dated 2021)
